In series [1] the test system is thrombus (mural carotid artery thrombosis). The series is described as follows: PET / SPECT imaging in rat carotid crush injury model. In kind it is in vivo.
Series [2] shares this test system. The series can be described thus: Ex vivo biodistribution. The settings on record: crush model, biodistribution at 120 minutes.
Series [3] in a line: Blood clearance / pharmacokinetics from serial blood samples.
The target of series [4] is soluble fibrin fragment DD(E) (Homo sapiens, UniProt P02671+P02675+P02679, DEL433-453). The format is binding. The settings on record: DD(E) assay.
The target in the next series is T1, immobilized fibrin (Homo sapiens, UniProt P02671+P02675+P02679).
T1 sequence (P02671 36-629 limits assumed): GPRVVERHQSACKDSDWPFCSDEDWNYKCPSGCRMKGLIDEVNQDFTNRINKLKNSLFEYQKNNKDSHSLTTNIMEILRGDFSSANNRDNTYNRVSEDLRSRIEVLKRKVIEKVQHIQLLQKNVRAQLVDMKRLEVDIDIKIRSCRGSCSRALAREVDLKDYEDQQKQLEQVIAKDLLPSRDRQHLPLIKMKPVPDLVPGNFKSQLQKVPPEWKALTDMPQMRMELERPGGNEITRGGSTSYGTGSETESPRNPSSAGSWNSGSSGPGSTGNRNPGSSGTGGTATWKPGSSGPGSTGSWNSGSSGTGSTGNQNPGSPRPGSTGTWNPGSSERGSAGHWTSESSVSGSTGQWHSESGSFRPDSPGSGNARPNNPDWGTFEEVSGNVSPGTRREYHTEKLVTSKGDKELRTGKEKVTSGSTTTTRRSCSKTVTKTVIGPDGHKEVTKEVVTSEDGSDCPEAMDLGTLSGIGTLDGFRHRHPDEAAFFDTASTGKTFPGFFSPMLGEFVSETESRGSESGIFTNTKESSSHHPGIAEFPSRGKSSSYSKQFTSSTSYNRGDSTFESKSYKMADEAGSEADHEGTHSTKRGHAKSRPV
T1 sequence (P02675 45-491 limits assumed): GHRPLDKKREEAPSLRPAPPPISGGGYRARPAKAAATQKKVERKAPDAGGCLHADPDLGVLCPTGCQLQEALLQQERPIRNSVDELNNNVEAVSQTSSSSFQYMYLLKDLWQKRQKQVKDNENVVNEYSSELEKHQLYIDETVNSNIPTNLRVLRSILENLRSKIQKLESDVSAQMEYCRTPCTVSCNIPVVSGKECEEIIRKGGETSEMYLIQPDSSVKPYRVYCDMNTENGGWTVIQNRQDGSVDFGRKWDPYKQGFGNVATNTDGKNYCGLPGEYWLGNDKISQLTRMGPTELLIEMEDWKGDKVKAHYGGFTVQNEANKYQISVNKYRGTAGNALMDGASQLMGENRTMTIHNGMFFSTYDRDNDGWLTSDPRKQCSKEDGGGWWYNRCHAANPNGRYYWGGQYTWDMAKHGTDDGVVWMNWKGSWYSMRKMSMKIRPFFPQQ
T1 sequence (P02679 27-437 isoform P02679-2 limits assumed): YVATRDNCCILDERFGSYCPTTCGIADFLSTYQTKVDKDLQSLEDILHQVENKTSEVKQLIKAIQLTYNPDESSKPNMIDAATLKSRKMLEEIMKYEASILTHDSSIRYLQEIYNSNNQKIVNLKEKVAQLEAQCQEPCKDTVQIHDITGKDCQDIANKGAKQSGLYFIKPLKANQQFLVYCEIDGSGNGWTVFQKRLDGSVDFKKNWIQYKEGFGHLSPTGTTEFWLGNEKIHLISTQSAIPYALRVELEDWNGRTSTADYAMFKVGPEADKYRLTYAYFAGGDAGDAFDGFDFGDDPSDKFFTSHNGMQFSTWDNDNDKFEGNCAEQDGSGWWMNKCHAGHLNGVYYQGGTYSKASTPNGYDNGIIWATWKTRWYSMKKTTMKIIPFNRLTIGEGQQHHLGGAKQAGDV
The series can be described thus: Functional fibrin-binding assay: blood plasma incubated with immobilized fibrin. Conditions: blood samples collected after injection.

The next series relates to 125I-labeled thrombus. The series can be described thus: Triple-isotope SPECT/PET/CT imaging with 125I-labeled thrombus. The format is in vivo, rat. The settings on record: ferric chloride model.

Each structure is given as a SMILES string. Entries after “also recorded” stand apart in the source; their conditions may differ. Bridge positions count the residues as written; N and C are the ends. Square brackets hold non-standard residues; d marks the D form. Peptide text beside a SMILES is read from it. * marks the point of attachment. X1 = O=C(O)CN1CCN(CC(=O)O)CCN(C(CCC(=O)NCc2ccc(CN*)cc2)C(=O)O)CC1; NODAGA = O=C(O)CN1CCN(CC(=O)O)CCN(C(CCC(=O)*)C(=O)O)CC1; Tyr(3-Cl) = N[C@@H](Cc1ccc(O)c(Cl)c1)C(=O)O; X3 = NCCN(CCN)CCC(=O)NCc1ccc(CN*)cc1; Hyp = O=C(O)[C@@H]1C[C@@H](O)CN1; X2 = NCCN(CCN)CCC(=O)*

Usually half-life stands for how long it takes for the measured level to halve. Read a high half-life as slow loss. As for `CC[C@H](C)[C@H](NC(=O)[C@H](Cc1c[nH]cn1)NC(=O)[C@@H]1CSSC[C@H](NC(=O)[C@H](Cc2c[nH]cn2)NC(=O)[C@H](Cc2ccccc2)NC(=O)CCN(CCN)CCN)C(=O)N2C[C@H](O)C[C@H]2C(=O)N[C@@H](Cc2ccc(O)c(Cl)c2)C(=O)N[C@@H](CC(=O)O)C(=O)N[C@@H](CC(C)C)C(=O)N1)C(=O)N[C@@H](CC(C)C)C(=O)NCc1ccc(CNC(=O)CCN(CCN)CCN)cc1` [^99mTc-FBP16, metal not drawn] (X2-FHC[Hyp][Tyr(3-Cl)]DLCHIL-X3; disulfide 3-8), the “thrombus detection on PET / SPECT images” value in series [1] is listed as “ineffective”. For the same molecule, in series [2], the thrombus uptake result is “low target uptake”. In series [3] (male, Sprague-Dawley, rat, in vivo, iv), this molecule gave a half-life of 5.9 ± 16.2 min. Also, the “clearance of radioactivity from blood” value in series [3] (serial blood draws 0 to 120 minutes p.i.) was “residual radioactivity persisting in the blood even after 120 minutes”.
With `CC[C@H](C)[C@H](NC(=O)[C@H](Cc1c[nH]cn1)NC(=O)[C@@H]1CSSC[C@@H](NC(=O)[C@H](Cc2c[nH]cn2)NC(=O)[C@H](Cc2ccccc2)NC(=O)CCC(C(=O)O)N2CCN(CC(=O)O)CCN(CC(=O)O)CC2)C(=O)N2C[C@H](O)C[C@H]2C(=O)N[C@@H](Cc2ccc(O)c(Cl)c2)C(=O)N[C@@H](CC(=O)O)C(=O)N[C@@H](CC(C)C)C(=O)N1)C(=O)N[C@@H](CC(C)C)C(=O)NCc1ccc(CNC(=O)CCC(C(=O)O)N2CCN(CC(=O)O)CCN(CC(=O)O)CC2)cc1` (stereo partly drawn) [^64Cu-D-Cys-FBP8, metal not drawn] ({NODAGA}-FH[dC][Hyp][Tyr(3-Cl)]DLCHIL-X1; disulfide 3-8), the “displacement of the fluorescent probe” value in series [4] was “no displacement”. Further, the “fibrin binding of blood samples (plasma incubated with immobilized fibrin)” value at immobilized fibrin was “does not bind to fibrin; also recorded: significantly lower binding”. The “thrombus detection on PET / SPECT images” value in series [1] is on record as “no uptake in the thrombus”. Further, the “localization to 125I-labeled thrombus (SPECT/PET)” value in the series on 125I-labeled thrombus is “did not reveal significant uptake at the target site”.

The values above are taken from PMC4762688 (Journal of nuclear medicine : official publication, Society …, 2015).
